The values that follow come from paper PMC8999917, “Structure–Activity Relationship of Synthetic Ginkgolic Acid Analogs for Treating Type 2 Diabetes by PTPN9 Inhibition” (International Journal of Molecular Sciences, 2022).

Assay [1] has as its system Akt phosphorylation. The assay can be described thus: Western blot of Akt phosphorylation in mature 3T3-L1 adipocytes. The settings on record: compound only group and insulin co-treatment group. The assay is classed as cell-based, mouse. The method, then: To further elucidate the pathway involved in 1e-mediated glucose uptake promotion, AMPK and Akt phosphorylation in mature 3T3-L1 adipocytes was evaluated via Western blotting following treatment with 5 or 10 µM 1e for 1 h.
(§1) The expression levels of glucose uptake-related proteins were determined via Western blotting, as previously described. In brief, differentiated 3T3-L1 cells were plated in six-well plates at a 1.5 × 10^4 cells/well density in a final volume of 2 mL. Then, the cells were incubated in the presence of DMSO or different concentrations of the compounds and harvested using a RIPA buffer (Sigma-Aldrich, Saint Louis, MS, USA) and a protease inhibitor cocktail (Roche Korea, Seoul, Korea) after 1 h of incubation. Equivalent amounts of proteins (20 µg) from each lysate were separated by 10% SDS-PAGE and transferred onto PVDF membranes (Merk KgaA, Darmstadt, Germany), where they were maintained for 120 min at 200 mA. The membranes were blocked with 5% skim milk for 1 h at room temperature in 0.1% TBST and then probed with primary antibodies at different concentrations in 0.1% BSA overnight at 4 °C according to the manufacturer’s instructions. Secondary antibodies were added to the membranes at a concentration of 1:2000 for 1 h at room temperature, and immunoreactive bands were detected via ECL (GE Healthcare Korea Co., Ltd., Incheon, Korea). […]
A general note: In western blotting, separated proteins are transferred to a membrane and probed.

In assay [2] the test system is AMPK phosphorylation. The assay can be described thus: Western blot of AMPK phosphorylation in C2C12 myotubes. The assay is classed as cell-based, mouse. The method, then:
To further investigate the mechanism of action of 1e, we evaluated its effects on AMPK and AKT phosphorylation in C2C12 myotubes. […] In line with the results obtained in 3T3-L1 cells, in the absence of insulin, 1e had no effects on basal p-Akt expression levels (Figure 6A).
as §1, with “The membranes were blocked with 5% skim milk for 1 h at room temperature in 0.1% TBST and then probed with primary antibodies at different concentrations in 0.1% BSA overnight at 4 °C according to the manufacturer’s instructions.” left out

Assay [3] addresses T1, PPARγ (Homo sapiens, UniProt P37231).
T1 construct: expressed in transfected cells; host or cells: CHO cells
T1 sequence (P37231 1-505): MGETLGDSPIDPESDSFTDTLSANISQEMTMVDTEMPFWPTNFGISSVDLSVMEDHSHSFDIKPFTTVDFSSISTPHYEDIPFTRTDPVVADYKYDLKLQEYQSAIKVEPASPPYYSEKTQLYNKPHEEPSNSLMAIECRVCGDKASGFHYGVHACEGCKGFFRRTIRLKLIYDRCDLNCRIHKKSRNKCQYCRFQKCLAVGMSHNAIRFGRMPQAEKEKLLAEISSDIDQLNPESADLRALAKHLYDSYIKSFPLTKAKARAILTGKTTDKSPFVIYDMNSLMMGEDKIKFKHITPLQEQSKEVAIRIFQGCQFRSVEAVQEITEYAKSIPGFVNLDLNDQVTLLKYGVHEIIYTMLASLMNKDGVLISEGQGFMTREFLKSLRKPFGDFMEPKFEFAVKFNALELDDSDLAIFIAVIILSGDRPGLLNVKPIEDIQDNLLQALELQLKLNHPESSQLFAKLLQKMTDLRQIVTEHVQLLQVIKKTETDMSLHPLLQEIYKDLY
As to the kind of experiment: PPARγ PPRE-Luc reporter gene assay in CHO cells. It is filed as cell-based. The settings on record: 50 μM. An excerpt: Glucose uptake is regulated by three major mechanisms. First, through the activation of the Akt pathway, which promotes GLUT4 translocation via the activation of the signaling cascade involving the insulin receptor substrate (IRS) family and PI3 kinase through […] or G-protein-coupled receptors (GPCRs); second, through the upregulation of AMPK phosphorylation, which increases glucose uptake by inducing GLUT4 translocation to the plasma membrane; third, through the promotion of GLUT4 expression by PPARγ ligands. […] However, these compounds may induce GLUT4 expression and improve insulin sensitivity in the treated cells through their interactions with GPCR and/or PPARγ. Among GPCRs highly expressed in 3T3-L1 adipocytes and C2C12 muscle cells, GPR120 is the receptor that is most closely associated with glucose uptake. […] This was performed following a previously described method. In brief, CHO cells were plated to 96-well white plates (REF3610, Corning Life Sciences, NY, USA) in DMEM (HyClone^TM, Cytivalifescience, Seoul, Korea) supplemented with 10% FBS and 1% penicillin at a density of 1.5 × 10^4 cells/well. […] After incubation for another 24 h, luciferase activity was measured using the dual-luciferase assay system (Promega Korea, Seoul, Korea) according to the manufacturer’s instructions. […]
For orientation: A reporter such as luciferase makes a cellular process visible.

For the molecule `CCCCCCCCCCCCCOc1cccc(O)c1C(=O)O` [Compound 1e], the Akt phosphorylation levels entry in assay [1] is “no significant change”. For the same molecule, the AMPK phosphorylation result in assay [2] is given as “significantly upregulated AMPK phosphorylation in a concentration-dependent manner”. Besides, the “PPARγ transcriptional activity (PPRE-Luc)” value in assay [3] was “No significant change”.

For the molecule `CCCCCCCCCCCCCCCOc1cccc(O)c1C(=O)O` [Compound 1f], the “PPARγ transcriptional activity (PPRE-Luc)” value in assay [3] is “No significant change”.
